One assay addresses T1, EED (1-441)-His protein (Homo sapiens, UniProt O75530).
T1 construct: 30 nM EED (1-441)-His protein
The experiment in a line: EED-H3K27Me3 peptide competition binding assay by AlphaScreen. In outline:
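Serially diluted compound (12 points, 3-fold) incubated 20 min with 30 nM EED(1-441)-His and 15 nM biotin-H3K27Me3(19-33) peptide in 25 mM HEPES pH 8, 0.02% Tween-20, 0.5% BSA. Ni-chelate acceptor/streptavidin donor beads (10 μg/mL each) added, 1 h rt dark; 615 nm emission normalized to controls, dose-response fit for IC50.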

Assay [1] relates to H3K27 methylation in G401 cell. The experiment in a line: ELISA (H3K27 methylation) assay in G401 cells. The format is cell-based, human. The settings on record: Homo sapiens. In outline: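 G401 cells treated 48 h with 3-fold dilutions (8 or 12 points, top 20 μM). Acid-extracted histones probed by ELISA for H3K27me3 or H3K27me2 with ECL readout, normalized to total H3. Percent inhibition versus DMSO fitted to dose-response curve for IC50.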
(An ELISA detects its analyte on a solid surface through an enzyme-linked reagent.)

Where [2] appears, read: read-out: (a) IC50, EED Alphascreen binding Qualified.
The mark [3] stands for this setting: G-401, read-out: (c) IC50, ELISA Qualified.
Where [4] appears, read: EED-H3K27Me3 peptide competition, AlphaScreen, read-out: (a) IC50 EED Alphascreen binding Qualified.
Where [5] appears, read: G-401, H3K27 methylation ELISA, read-out: (c) IC50 ELISA Qualified.

Read-outs that look alike come from different tables or passages of the source.

T1 sequence (O75530 whole entry): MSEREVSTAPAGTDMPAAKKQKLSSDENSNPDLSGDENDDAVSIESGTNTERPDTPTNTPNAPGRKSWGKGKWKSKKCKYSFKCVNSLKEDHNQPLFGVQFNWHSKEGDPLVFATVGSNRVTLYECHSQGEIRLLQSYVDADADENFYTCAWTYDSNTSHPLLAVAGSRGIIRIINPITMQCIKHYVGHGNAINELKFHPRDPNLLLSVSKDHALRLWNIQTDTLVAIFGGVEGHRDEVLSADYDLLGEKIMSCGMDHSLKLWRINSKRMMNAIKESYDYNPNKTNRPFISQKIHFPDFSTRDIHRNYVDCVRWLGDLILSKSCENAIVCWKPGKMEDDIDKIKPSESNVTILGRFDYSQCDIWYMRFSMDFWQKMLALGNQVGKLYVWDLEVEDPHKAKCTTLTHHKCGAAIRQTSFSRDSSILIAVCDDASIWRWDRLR

Regarding `COc1c(F)cccc1CNc1ccc(-c2ccncc2)c2nncn12` [Example 137, N-(3-fluoro-2-methoxybenzyl)-8-(pyridin-4-yl)-[1,2,4]triazolo[4,3-a]pyridin-5-amine], the IC50 worked out at 0.344 µM on EED (1-441)-His protein (setting [2]) and 0.733 µM in assay [1] (setting [3]).
In the same order, the values of `COc1c(F)cccc1CNc1ccc(-c2ccc(S(=O)(=O)C3CCN(C)CC3)cc2)c2nncn12` [Example 138, N-(3-fluoro-2-methoxybenzyl)-8-(4-((1-methylpiperidin-4-yl)sulfonyl)phenyl)-[1,2,4] triazolo[4,3-a]pyridin-5-amine] are 1.27 µM and 2.9 µM.
The corresponding values for `COc1cccc(F)c1CNc1ccc(-c2cnc(N(C)C)nc2)c2nncn12` [Example 141, 8-(2-(dimethylamino)pyrimidin-5-yl)-N-(2-fluoro-6-methoxybenzyl)-[1,2,4] triazolo[4,3-a]pyridin-5-amine] are 0.118 µM and 0.761 µM.
The corresponding values for `COc1c(F)cccc1CNc1ccc(-c2cccnc2)c2nncn12` [Example 144, N-(3-fluoro-2-methoxybenzyl)-8-(pyridin-3-yl)-[1,2,4]triazolo[4,3-a]pyridin-5-amine] are 1.27 µM and 0.986 µM.
Take `COc1cccc(F)c1CNc1ccc(-c2cnn(CCO)c2)c2nncn12` [Example 145, 2-(4-(5-((2-fluoro-6-methoxybenzyl)amino)-[1,2,4]triazolo[4,3-a]pyridin-8-yl)-1H-pyrazol-1-yl)ethanol]: the values for the IC50 (at EED (1-441)-His protein (setting [2]); in assay [1] (setting [3])) were 0.125 µM and 0.118 µM, respectively.
The corresponding values for `COc1c(F)cc(F)cc1CNc1ccc(-c2ccc(CN(C)C)cc2)c2nncn12` [Example 146, N-(3,5-difluoro-2-methoxybenzyl)-8-(4-((dimethylamino)methyl)phenyl)-[1,2,4]triazolo[4,3-a] pyridin-5-amine] are 1.98 µM and 4.11 µM.
In the same order, the values of `COc1cc(F)ccc1CNc1ccc(-c2ccc(S(=O)(=O)C3CCN(C)CC3)cc2)c2nncn12` [Example 153, N-(4-fluoro-2-methoxybenzyl)-8-(4-((1-methylpiperidin-4-yl)sulfonyl)phenyl)-[1,2,4]triazolo[4,3-a] pyridin-5-amine] are 0.168 µM and 0.223 µM.
In the same order, the values of `COc1cc(CNc2ccc(-c3ccc(CN(C)C)cc3)c3nncn23)ccc1F` [Example 156, 8-(4-((dimethylamino)methyl)phenyl)-N-(4-fluoro-3-methoxybenzyl)-[1,2,4] triazolo[4,3-a]pyridin-5-amine] are 1.35 µM and 0.788 µM.
For the compound `COc1cc(F)cc(CNc2ccc(-c3ccc(CN(C)C)cc3)c3nncn23)c1` [Example 171, 8-(4-((dimethylamino)methyl)phenyl)-N-(3-fluoro-5-methoxybenzyl)-[1,2,4]triazolo[4,3-a]pyridin-5-amine], the IC50 at EED (1-441)-His protein (setting [2]) is 0.839 µM; in assay [1] (setting [3]) it was 1.1 µM.
Regarding `COc1ccccc1-c1ccc(NCc2c(F)cccc2OC)n2cnnc12` [Example 191, N-(2-fluoro-6-methoxybenzyl)-8-(2-methoxyphenyl)-[1,2,4]triazolo[4,3-a] pyridin-5-amine], the values for the IC50 (at EED (1-441)-His protein (setting [4]); in assay [1] (setting [5])) were 0.479 µM and 0.996 µM, respectively.
For `COc1cccc(F)c1CNc1ccc(-c2ccccc2C(F)(F)F)c2nncn12` [Example 193, N-(2-fluoro-6-methoxybenzyl)-8-(2-(trifluoromethyl)phenyl)-[1,2,4]triazolo[4,3-a]pyridin-5-amine], the IC50 on EED (1-441)-His protein (setting [4]) was found to be 0.283 µM; in assay [1] (setting [5]), 0.704 µM.
In the same order, the values of `COc1cccc(F)c1CNc1ccc(-c2cncc(C(C)O)c2)c2nncn12` (stereo not shown) [Example 197, 1-(5-(5-((2-fluoro-6-methoxybenzyl)amino)-[1,2,4]triazolo[4,3-a]pyridin-8-yl)pyridin-3-yl)ethanol] are 0.414 µM and 0.161 µM.
The corresponding values for `COc1cccc(F)c1CNc1ccc(-c2cnccc2C(F)(F)F)c2nncn12` [Example 202, N-(2-fluoro-6-methoxybenzyl)-8-(4-(trifluoromethyl)pyridin-3-yl)-[1,2,4]triazolo[4,3-a] pyridin-5-amine] are 0.27 µM and 0.318 µM.
The corresponding values for `COc1cccc(F)c1CNc1ccc(-c2cncc(OCCS(C)(=O)=O)c2)c2nncn12` [Example 204, N-(2-fluoro-6-methoxybenzyl)-8-(5-(2-(methylsulfonyl)ethoxy)pyridin-3-yl)-[1,2,4]triazolo[4,3-a] pyridin-5-amine] are 0.143 µM and 0.0958 µM.
In the case of `COc1cccc(F)c1CNc1ccc(-c2cc(F)c(N)cc2F)c2nncn12` [Example 208, 8-(4-amino-2,5-difluorophenyl)-N-(2-fluoro-6-methoxybenzyl)-[1,2,4]triazolo[4,3-a]pyridin-5-amine], the values for the IC50 (at EED (1-441)-His protein (setting [4]); in assay [1] (setting [5])) were 0.105 µM and 0.14 µM, respectively.
For `COc1cccc(F)c1CNc1ccc(-c2ccc(C#N)cc2C)c2nncn12` [Example 209, 4-(5-((2-fluoro-6-methoxybenzyl)amino)-[1,2,4]triazolo[4,3-a]pyridin-8-yl)-3-methylbenzonitrile], the IC50 is 0.119 µM at EED (1-441)-His protein (setting [4]) and 0.0762 µM in assay [1] (setting [5]).
The corresponding values for `COc1cccc(F)c1CNc1ccc(-c2ccccc2C)c2nncn12` [Example 211, N-(2-fluoro-6-methoxybenzyl)-8-(o-tolyl)-[1,2,4] triazolo[4,3-a]pyridin-5-amine] are 0.103 µM and 0.151 µM.
For the compound `COc1cccc(F)c1CNc1ccc(-c2ccc(Cl)cc2Cl)c2nncn12` [Example 224, 8-(2,4-dichlorophenyl)-N-(2-fluoro-6-methoxybenzyl)-[1,2,4]triazolo[4,3-a]pyridin-5-amine], the IC50 at EED (1-441)-His protein (setting [4]) came to 0.137 µM; in assay [1] (setting [5]), 0.22 µM.
The corresponding values for `COc1ccc(F)c(F)c1CNc1ccc(-c2cccnc2)c2nncn12` [Example 242, N-(2,3-difluoro-6-methoxybenzyl)-8-(pyridin-3-yl)-[1,2,4]triazolo[4,3-a]pyridin-5-amine] are 0.177 µM and 0.455 µM.
In the same order, the values of `COc1ccc(F)c(F)c1CNc1ccc(-c2ccncc2)c2nncn12` [Example 243, N-(2,3-difluoro-6-methoxybenzyl)-8-(pyridin-4-yl)-[1,2,4]triazolo[4,3-a]pyridin-5-amine] are 0.329 µM and 0.349 µM.
In the same order, the values of `COc1ccc(F)c(F)c1CNc1ccc(-c2ccc(S(C)(=O)=O)cc2)c2nncn12` [Example 244, N-(2,3-difluoro-6-methoxybenzyl)-8-(4-(methylsulfonyl)phenyl)-[1,2,4]triazolo[4,3-a]pyridin-5-amine] are 0.231 µM and 0.277 µM.
For the compound `CCc1ccccc1-c1ccc(NCc2c(F)cccc2OC)n2cnnc12` [Example 254, 8-(2-ethylphenyl)-N-(2-fluoro-6-methoxybenzyl)-[1,2,4]triazolo[4,3-a]pyridin-5-amine], the IC50 at EED (1-441)-His protein (setting [4]) was determined as 0.263 µM; in assay [1] (setting [5]), 0.761 µM.
The corresponding values for `COc1cccc(F)c1CNc1ccc(-c2cn(C(C)C)nc2C(F)(F)F)c2nncn12` [Example 255, N-(2-fluoro-6-methoxybenzyl)-8-(1-isopropyl-3-(trifluoromethyl)-1H-pyrazol-4-yl)-[1,2,4]triazolo[4,3-a] pyridin-5-amine] are 0.189 µM and 0.0768 µM.

One may read the IC50 as the concentration that gives 50% inhibition.

These data come from patent publication US10689378B2, “Triazolopyridine compounds and uses thereof” (Novartis AG, priority 2016, dated 2020).
